In PubChem BioAssay AID180 (DTP/NCI, 2004):
Values joined by “and” are separate entries in the source; they are usually repeats but may differ in a detail not shown here. Equal values may be shown once.

System: BDF1 mice, Adenocarcinoma 755 s.c., tumor weight T/C
Experiment: NCI In Vivo Anticancer Drug Screen. Data for tumor model Adenocarcinoma 755 (subcutaneous) in B6D2F1 (BDF1) mice
Conditions: endpoint: mean tumor weight, higher = larger tumour
Procedure, shortened: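 Values express treated (T) relative to vehicle-dosed control (C) animals, based on survival or tumour size measured after compound treatment of mice bearing a transplanted tumour.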

[1] = dose: 15.0 mg/kg/injection, schedule: Q01DX011 (oral), vehicle: carboxymethylcellulose (CMC)
[2] = dose: 25.0 mg/kg/injection, schedule: Q01DX011 (ip), vehicle: carboxymethylcellulose (CMC)

CSc1ncnc2nc[nH]c12
T/C (dose: 0.5 mg/kg/injection, schedule: Q#A X022 (ip), vehicle: carboxymethylcellulose (CMC)): 64 % of control
T/C (dose: 1.0 mg/kg/injection, schedule: Q01DX011 (im), vehicle: carboxymethylcellulose (CMC)): 99 % of control
T/C (dose: 1.0 mg/kg/injection, schedule: Q01DX011 (oral), vehicle: carboxymethylcellulose (CMC)): 58 % of control
T/C (dose: 1.0 mg/kg/injection, schedule: Q01DX011 (sc), vehicle: carboxymethylcellulose (CMC)): 58 % of control
T/C (dose: 1.5 mg/kg/injection, schedule: Q01DX011 (ip), vehicle: carboxymethylcellulose (CMC)): 50 % of control
T/C (dose: 2.5 mg/kg/injection, schedule: Q#A X022 (ip), vehicle: carboxymethylcellulose (CMC)): 46 % of control
T/C (dose: 3.0 mg/kg/injection, schedule: Q01DX011 (ip), vehicle: carboxymethylcellulose (CMC)): 82 % of control
T/C (dose: 5.0 mg/kg/injection, schedule: Q01DX011 (im), vehicle: carboxymethylcellulose (CMC)): 89 % of control
T/C (dose: 5.0 mg/kg/injection, schedule: Q01DX011 (oral), vehicle: carboxymethylcellulose (CMC)): 5 % of control and 26 % of control
T/C (dose: 5.0 mg/kg/injection, schedule: Q01DX011 (sc), vehicle: carboxymethylcellulose (CMC)): 60 % of control
T/C (dose: 5.0 mg/kg/injection, schedule: Q03DX004 (ip), vehicle: carboxymethylcellulose (CMC)): 70 % of control
T/C (dose: 5.0 mg/kg/injection, schedule: Q#A X022 (ip), vehicle: carboxymethylcellulose (CMC)): 40 % of control
T/C (dose: 6.0 mg/kg/injection, schedule: Q01DX011 (ip), vehicle: carboxymethylcellulose (CMC)): 28 % of control
T/C (dose: 7.5 mg/kg/injection, schedule: Q#A X022 (ip), vehicle: carboxymethylcellulose (CMC)): 40 % of control
T/C (dose: 10.0 mg/kg/injection, schedule: Q01DX001 (ip), vehicle: carboxymethylcellulose (CMC)): 94 % of control
T/C (dose: 10.0 mg/kg/injection, schedule: Q01DX011 (sc), vehicle: carboxymethylcellulose (CMC)): 30 % of control
T/C (dose: 10.0 mg/kg/injection, schedule: Q03DX004 (ip), vehicle: carboxymethylcellulose (CMC)): 86 % of control
T/C (dose: 12.0 mg/kg/injection, schedule: Q01DX011 (ip), vehicle: carboxymethylcellulose (CMC)): 13 % of control
T/C (dose: 12.5 mg/kg/injection, schedule: Q#A X022 (ip), vehicle: carboxymethylcellulose (CMC)): 4 % of control
T/C (dose: 15.0 mg/kg/injection, schedule: Q01DX011 (im), vehicle: carboxymethylcellulose (CMC)): 8 % of control
T/C [1]: 5 % of control
T/C (dose: 15.0 mg/kg/injection, schedule: Q01DX011 (sc), vehicle: carboxymethylcellulose (CMC)): 4 % of control
T/C (dose: 25.0 mg/kg/injection, schedule: Q01DX001 (ip), vehicle: carboxymethylcellulose (CMC)): 53 % of control
T/C (dose: 25.0 mg/kg/injection, schedule: Q01DX006 (iv), vehicle: carboxymethylcellulose (CMC)): 36 % of control
T/C (dose: 25.0 mg/kg/injection, schedule: Q01DX011 (im), vehicle: carboxymethylcellulose (CMC)): 6 % of control
T/C [2]: 1 % of control
T/C (dose: 25.0 mg/kg/injection, schedule: Q01DX011 (oral), vehicle: carboxymethylcellulose (CMC)): 11 % of control
T/C (dose: 25.0 mg/kg/injection, schedule: Q03DX004 (ip), vehicle: carboxymethylcellulose (CMC)): 82 % of control
T/C (dose: 25.0 mg/kg/injection, schedule: Q#A X022 (ip), vehicle: carboxymethylcellulose (CMC)): 2 % of control
T/C (dose: 50.0 mg/kg/injection, schedule: Q01DX001 (ip), vehicle: carboxymethylcellulose (CMC)): 41 % of control
T/C (dose: 50.0 mg/kg/injection, schedule: Q01DX006 (iv), vehicle: carboxymethylcellulose (CMC)): 37 % of control
T/C (dose: 50.0 mg/kg/injection, schedule: Q01DX011 (ip), vehicle: carboxymethylcellulose (CMC)): 1 % of control
T/C (dose: 50.0 mg/kg/injection, schedule: Q01DX011 (oral), vehicle: carboxymethylcellulose (CMC)): 1 % of control and 3 % of control
T/C (dose: 50.0 mg/kg/injection, schedule: Q03DX004 (ip), vehicle: carboxymethylcellulose (CMC)): 80 % of control
T/C (dose: 50.0 mg/kg/injection, schedule: Q#A X022 (ip), vehicle: carboxymethylcellulose (CMC)): 2 % of control
T/C (dose: 75.0 mg/kg/injection, schedule: Q01DX001 (ip), vehicle: carboxymethylcellulose (CMC)): 80 % of control
T/C (dose: 75.0 mg/kg/injection, schedule: Q03DX004 (ip), vehicle: carboxymethylcellulose (CMC)): 14 % of control
T/C (dose: 100.0 mg/kg/injection, schedule: Q01DX001 (ip), vehicle: carboxymethylcellulose (CMC)): 46 % of control
T/C (dose: 100.0 mg/kg/injection, schedule: Q01DX006 (iv), vehicle: carboxymethylcellulose (CMC)): 21 % of control
T/C (dose: 100.0 mg/kg/injection, schedule: Q01DX011 (ip), vehicle: carboxymethylcellulose (CMC)): 1 % of control
T/C (dose: 100.0 mg/kg/injection, schedule: Q01DX011 (oral), vehicle: carboxymethylcellulose (CMC)): 5 % of control
T/C (dose: 125.0 mg/kg/injection, schedule: Q01DX001 (ip), vehicle: carboxymethylcellulose (CMC)): 37 % of control
T/C (dose: 150.0 mg/kg/injection, schedule: Q03DX004 (ip), vehicle: carboxymethylcellulose (CMC)): 2 % of control
T/C (dose: 200.0 mg/kg/injection, schedule: Q01DX006 (iv), vehicle: carboxymethylcellulose (CMC)): 4 % of control
T/C (dose: 375.0 mg/kg/injection, schedule: Q01DX001 (ip), vehicle: carboxymethylcellulose (CMC)): 53 % of control

c1ccc(CNc2ncnc3[nH]ncc23)cc1
T/C (dose: 4.0 mg/kg/injection, schedule: Q01DX011 (ip), vehicle: carboxymethylcellulose (CMC)): 83 % of control
T/C (dose: 8.0 mg/kg/injection, schedule: Q01DX011 (ip), vehicle: carboxymethylcellulose (CMC)): 69 % of control
T/C (dose: 16.0 mg/kg/injection, schedule: Q01DX011 (ip), vehicle: carboxymethylcellulose (CMC)): 22 % of control
T/C (dose: 31.25 mg/kg/injection, schedule: Q01DX011 (ip), vehicle: carboxymethylcellulose (CMC)): 54 % of control

CCC(=O)N(CC)CC
T/C (dose: 250.0 mg/kg/injection, schedule: Q01DX011 (ip), vehicle: other): 100 % of control

CSc1ncc(Br)c(Nc2ccc(Cl)c(Cl)c2)n1
T/C (dose: 15.0 mg/kg/injection, schedule: Q01DX011 (ip), vehicle: methylcellulose (MC)): 57 % of control
T/C (dose: 31.0 mg/kg/injection, schedule: Q01DX011 (ip), vehicle: methylcellulose (MC)): 66 % of control
T/C (dose: 62.0 mg/kg/injection, schedule: Q01DX011 (ip), vehicle: methylcellulose (MC)): 78 % of control
T/C (dose: 125.0 mg/kg/injection, schedule: Q01DX011 (ip), vehicle: methylcellulose (MC)): 67 % of control
T/C (dose: 250.0 mg/kg/injection, schedule: Q01DX011 (ip), vehicle: methylcellulose (MC)): 62 % of control

COc1cc(C(=O)[O][Hg][CH2]C2COC([CH2][Hg][O]C(=O)c3cc(OC)c(OC)c(OC)c3)CO2)cc(OC)c1OC (centres undefined)
T/C [2]: 61 % of control

Cn1cnc2c(ncn2C2OC(CO)C(O)C2O)c1=N (centres undefined)
T/C (dose: 30.0 mg/kg/injection, schedule: Q01DX011 (ip), vehicle: saline): 118 % of control
T/C (dose: 120.0 mg/kg/injection, schedule: Q01DX011 (ip), vehicle: saline): 47 % of control
T/C (dose: 240.0 mg/kg/injection, schedule: Q01DX011 (ip), vehicle: saline): 74 % of control

CCCCn1cnc2c(=O)[nH]cnc21
T/C (dose: 0.9 mg/kg/injection, schedule: Q01DX011 (ip), vehicle: carboxymethylcellulose (CMC)): 76 % of control
T/C (dose: 1.8 mg/kg/injection, schedule: Q01DX011 (ip), vehicle: carboxymethylcellulose (CMC)): 83 % of control
T/C (dose: 1.8 mg/kg/injection, schedule: Q01DX011 (oral), vehicle: carboxymethylcellulose (CMC)): 76 % of control
T/C (dose: 3.7 mg/kg/injection, schedule: Q01DX011 (ip), vehicle: carboxymethylcellulose (CMC)): 91 % of control
T/C (dose: 3.7 mg/kg/injection, schedule: Q01DX011 (oral), vehicle: carboxymethylcellulose (CMC)): 107 % of control
T/C (dose: 7.5 mg/kg/injection, schedule: Q01DX011 (ip), vehicle: carboxymethylcellulose (CMC)): 63 % of control
T/C (dose: 7.5 mg/kg/injection, schedule: Q01DX011 (oral), vehicle: carboxymethylcellulose (CMC)): 82 % of control
T/C [1]: 90 % of control
T/C (dose: 40.0 mg/kg/injection, schedule: Q01DX001 (ip), vehicle: other): 60 % of control
T/C (dose: 66.1 mg/kg/injection, schedule: Q01DX011 (ip), vehicle: other): 111 % of control
T/C (dose: 81.0 mg/kg/injection, schedule: Q01DX001 (ip), vehicle: other): 45 % of control
T/C (dose: 132.2 mg/kg/injection, schedule: Q01DX011 (ip), vehicle: other): 90 % of control
T/C (dose: 132.25 mg/kg/injection, schedule: Q01DX011 (ip), vehicle: carboxymethylcellulose (CMC)): 58 % of control
T/C (dose: 132.25 mg/kg/injection, schedule: Q01DX011 (oral), vehicle: carboxymethylcellulose (CMC)): 70 % of control
T/C (dose: 162.0 mg/kg/injection, schedule: Q01DX001 (ip), vehicle: other): 122 % of control
T/C (dose: 264.5 mg/kg/injection, schedule: Q01DX011 (ip), vehicle: carboxymethylcellulose (CMC)): 105 % of control
T/C (dose: 264.5 mg/kg/injection, schedule: Q01DX011 (ip), vehicle: other): 76 % of control
T/C (dose: 264.5 mg/kg/injection, schedule: Q01DX011 (oral), vehicle: carboxymethylcellulose (CMC)): 86 % of control
T/C (dose: 324.0 mg/kg/injection, schedule: Q01DX001 (ip), vehicle: other): 102 % of control
T/C (dose: 529.0 mg/kg/injection, schedule: Q01DX011 (oral), vehicle: carboxymethylcellulose (CMC)): 89 % of control
